Results taken from PubChem BioAssay (NCI).
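Tested at 5 concentrations; 48 h exposure; 96-well plates; endpoints linearly interpolated, else capped at highest concentration. Definition used: TGI = concentration required for complete inhibition of growth.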

Columns and labels:
Assay in all cases: DTP human tumour cell line panel, 48 h
786-0 renal = tested on: 786-0 renal
A498 renal = tested on: A498 renal
A549 NSCLC = tested on: A549 NSCLC
ACHN renal = tested on: ACHN renal
BT-549 breast = tested on: BT-549 breast
CAKI-1 renal = tested on: CAKI-1 renal
CCRF-CEM leukemia = tested on: CCRF-CEM leukemia
COLO 205 colon = tested on: COLO 205 colon
DU-145 prostate = tested on: DU-145 prostate
EKVX NSCLC = tested on: EKVX NSCLC
HCC-2998 colon = tested on: HCC-2998 colon
HCT-116 colon = tested on: HCT-116 colon
HCT-15 colon = tested on: HCT-15 colon
HOP-62 NSCLC = tested on: HOP-62 NSCLC
HOP-92 NSCLC = tested on: HOP-92 NSCLC
HT29 colon = tested on: HT29 colon
IGROV1 ovarian = tested on: IGROV1 ovarian
K-562 leukemia = tested on: K-562 leukemia
KM12 colon = tested on: KM12 colon
LOX IMVI melanoma = tested on: LOX IMVI melanoma
M14 melanoma = tested on: M14 melanoma
MALME-3M melanoma = tested on: MALME-3M melanoma
MCF7 breast = tested on: MCF7 breast
MDA-MB-231 breast = tested on: MDA-MB-231 breast
MDA-MB-435 = tested on: MDA-MB-435
MDA-N = tested on: MDA-N
MOLT-4 leukemia = tested on: MOLT-4 leukemia
NCI-H226 lung = tested on: NCI-H226 lung
NCI-H23 lung = tested on: NCI-H23 lung
NCI-H522 lung = tested on: NCI-H522 lung
NCI/ADR-RES ovarian = tested on: NCI/ADR-RES ovarian
OVCAR-3 ovarian = tested on: OVCAR-3 ovarian
OVCAR-4 ovarian = tested on: OVCAR-4 ovarian
OVCAR-5 ovarian = tested on: OVCAR-5 ovarian
OVCAR-8 ovarian = tested on: OVCAR-8 ovarian
PC-3 prostate = tested on: PC-3 prostate
RPMI-8226 leukemia = tested on: RPMI-8226 leukemia
RXF 393 renal = tested on: RXF 393 renal
SF-268 CNS = tested on: SF-268 CNS
SF-295 CNS = tested on: SF-295 CNS
SF-539 CNS = tested on: SF-539 CNS
SK-MEL-2 melanoma = tested on: SK-MEL-2 melanoma
SK-MEL-28 melanoma = tested on: SK-MEL-28 melanoma
SK-MEL-5 melanoma = tested on: SK-MEL-5 melanoma
SK-OV-3 ovarian = tested on: SK-OV-3 ovarian
SN12C renal = tested on: SN12C renal
SNB-19 CNS = tested on: SNB-19 CNS
SR leukemia = tested on: SR leukemia
SW-620 colon = tested on: SW-620 colon
T-47D breast = tested on: T-47D breast
TK-10 renal = tested on: TK-10 renal
U251 CNS = tested on: U251 CNS
UACC-257 melanoma = tested on: UACC-257 melanoma
UACC-62 melanoma = tested on: UACC-62 melanoma
UO-31 renal = tested on: UO-31 renal
HL-60(TB) leukemia = tested on: HL-60(TB) leukemia
NCI-H460 lung = tested on: NCI-H460 lung
SNB-75 CNS = tested on: SNB-75 CNS

CC1(C)C[C@H]2[C@H](O)C(CO)=C3C(=O)[C@@H](O)[C@]3(C)[C@H]2C1
TGI (786-0 renal): > 100 µM | TGI (A498 renal): > 100 µM | TGI (A549 NSCLC): > 100 µM | TGI (ACHN renal): > 100 µM | TGI (BT-549 breast): > 100 µM | TGI (CAKI-1 renal): > 100 µM | TGI (CCRF-CEM leukemia): 84 µM | TGI (COLO 205 colon): > 100 µM | TGI (DU-145 prostate): > 100 µM | TGI (EKVX NSCLC): > 100 µM | TGI (HCC-2998 colon): > 100 µM | TGI (HCT-116 colon): > 100 µM | TGI (HCT-15 colon): > 100 µM | TGI (HOP-62 NSCLC): > 100 µM | TGI (HOP-92 NSCLC): > 100 µM | TGI (HT29 colon): > 100 µM | TGI (IGROV1 ovarian): > 100 µM | TGI (K-562 leukemia): > 100 µM | TGI (KM12 colon): > 100 µM | TGI (LOX IMVI melanoma): > 100 µM | TGI (M14 melanoma): > 100 µM | TGI (MALME-3M melanoma): > 100 µM | TGI (MCF7 breast): > 100 µM | TGI (MDA-MB-231 breast): > 100 µM | TGI (MDA-MB-435): > 100 µM | TGI (MDA-N): > 100 µM | TGI (MOLT-4 leukemia): 53.3 µM | TGI (NCI-H226 lung): > 100 µM | TGI (NCI-H23 lung): > 100 µM | TGI (NCI-H522 lung): > 100 µM | TGI (NCI/ADR-RES ovarian): > 100 µM | TGI (OVCAR-3 ovarian): > 100 µM | TGI (OVCAR-4 ovarian): > 100 µM | TGI (OVCAR-5 ovarian): > 100 µM | TGI (OVCAR-8 ovarian): > 100 µM | TGI (PC-3 prostate): > 100 µM | TGI (RPMI-8226 leukemia): > 100 µM | TGI (RXF 393 renal): > 100 µM | TGI (SF-268 CNS): > 100 µM | TGI (SF-295 CNS): > 100 µM | TGI (SF-539 CNS): > 100 µM | TGI (SK-MEL-2 melanoma): > 100 µM | TGI (SK-MEL-28 melanoma): > 100 µM | TGI (SK-MEL-5 melanoma): > 100 µM | TGI (SK-OV-3 ovarian): > 100 µM | TGI (SN12C renal): > 100 µM | TGI (SNB-19 CNS): > 100 µM | TGI (SR leukemia): > 100 µM | TGI (SW-620 colon): > 100 µM | TGI (T-47D breast): > 100 µM | TGI (TK-10 renal): > 100 µM | TGI (U251 CNS): > 100 µM | TGI (UACC-257 melanoma): > 100 µM | TGI (UACC-62 melanoma): > 100 µM | TGI (UO-31 renal): > 100 µM

CC(C)(C)C1=NC(=S)SC2=NC(=O)C3(NN21)c1ccccc1-c1ccccc13
TGI (786-0 renal): > 10 µM | TGI (A549 NSCLC): > 10 µM | TGI (ACHN renal): > 10 µM | TGI (BT-549 breast): > 10 µM | TGI (CAKI-1 renal): > 10 µM | TGI (CCRF-CEM leukemia): > 10 µM | TGI (COLO 205 colon): > 10 µM | TGI (DU-145 prostate): > 10 µM | TGI (EKVX NSCLC): > 10 µM | TGI (HCC-2998 colon): > 10 µM | TGI (HCT-15 colon): > 10 µM | TGI (HL-60(TB) leukemia): > 10 µM | TGI (HOP-62 NSCLC): > 10 µM | TGI (HOP-92 NSCLC): > 10 µM | TGI (HT29 colon): > 10 µM | TGI (IGROV1 ovarian): > 10 µM | TGI (K-562 leukemia): > 10 µM | TGI (KM12 colon): > 10 µM | TGI (LOX IMVI melanoma): > 10 µM | TGI (M14 melanoma): > 10 µM | TGI (MALME-3M melanoma): > 10 µM | TGI (MCF7 breast): > 10 µM | TGI (MDA-MB-231 breast): > 10 µM | TGI (MDA-MB-435): > 10 µM | TGI (MDA-N): > 10 µM | TGI (MOLT-4 leukemia): > 10 µM | TGI (NCI-H226 lung): > 10 µM | TGI (NCI-H23 lung): > 10 µM | TGI (NCI-H460 lung): > 10 µM | TGI (NCI-H522 lung): > 10 µM | TGI (NCI/ADR-RES ovarian): > 10 µM | TGI (OVCAR-4 ovarian): > 10 µM | TGI (OVCAR-8 ovarian): > 10 µM | TGI (PC-3 prostate): > 10 µM | TGI (RPMI-8226 leukemia): > 10 µM | TGI (RXF 393 renal): > 10 µM | TGI (SF-268 CNS): > 10 µM | TGI (SF-295 CNS): > 10 µM | TGI (SK-MEL-28 melanoma): > 10 µM | TGI (SK-MEL-5 melanoma): > 10 µM | TGI (SK-OV-3 ovarian): > 10 µM | TGI (SN12C renal): > 10 µM | TGI (SNB-19 CNS): > 10 µM | TGI (SNB-75 CNS): > 10 µM | TGI (SR leukemia): > 10 µM | TGI (SW-620 colon): > 10 µM | TGI (T-47D breast): > 10 µM | TGI (TK-10 renal): > 10 µM | TGI (UACC-257 melanoma): > 10 µM | TGI (UACC-62 melanoma): > 10 µM | TGI (UO-31 renal): > 10 µM

Cc1ccc(NC(=S)C#N)cc1Cl
TGI (786-0 renal): > 100 µM | TGI (A498 renal): 73.7 µM | TGI (A549 NSCLC): > 100 µM | TGI (ACHN renal): > 100 µM | TGI (BT-549 breast): > 100 µM | TGI (CAKI-1 renal): > 100 µM | TGI (CCRF-CEM leukemia): 80.3 µM | TGI (COLO 205 colon): 65.2 µM | TGI (DU-145 prostate): > 100 µM | TGI (EKVX NSCLC): > 100 µM | TGI (HCC-2998 colon): 52.8 µM | TGI (HCT-116 colon): > 100 µM | TGI (HCT-15 colon): > 100 µM | TGI (HOP-62 NSCLC): > 100 µM | TGI (HOP-92 NSCLC): 62.8 µM | TGI (HT29 colon): > 100 µM | TGI (IGROV1 ovarian): 48.4 µM | TGI (K-562 leukemia): > 100 µM | TGI (KM12 colon): > 100 µM | TGI (LOX IMVI melanoma): > 100 µM | TGI (M14 melanoma): > 100 µM | TGI (MALME-3M melanoma): > 100 µM | TGI (MCF7 breast): > 100 µM | TGI (MDA-MB-231 breast): > 100 µM | TGI (MDA-MB-435): > 100 µM | TGI (MDA-N): > 100 µM | TGI (MOLT-4 leukemia): > 100 µM | TGI (NCI-H226 lung): > 100 µM | TGI (NCI-H23 lung): > 100 µM | TGI (NCI/ADR-RES ovarian): > 100 µM | TGI (OVCAR-3 ovarian): 53.8 µM | TGI (OVCAR-5 ovarian): 85.7 µM | TGI (OVCAR-8 ovarian): > 100 µM | TGI (PC-3 prostate): > 100 µM | TGI (RPMI-8226 leukemia): 56.2 µM | TGI (RXF 393 renal): 97.8 µM | TGI (SF-268 CNS): > 100 µM | TGI (SF-295 CNS): > 100 µM | TGI (SF-539 CNS): 70.5 µM | TGI (SK-MEL-2 melanoma): > 100 µM | TGI (SK-MEL-28 melanoma): > 100 µM | TGI (SK-MEL-5 melanoma): > 100 µM | TGI (SK-OV-3 ovarian): > 100 µM | TGI (SN12C renal): > 100 µM | TGI (SNB-75 CNS): 75 µM | TGI (SR leukemia): > 100 µM | TGI (SW-620 colon): > 100 µM | TGI (T-47D breast): > 100 µM | TGI (TK-10 renal): > 100 µM | TGI (U251 CNS): > 100 µM | TGI (UACC-257 melanoma): > 100 µM | TGI (UACC-62 melanoma): > 100 µM
